How the values were obtained:
HABS = astrocyte control; assay: growth inhibition relative to DMSO (0) and positive control (1) (fraction); higher = more growth inhibition
Experimental: (§1)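 Paxalisib (GDC0084) x mirdametinib (PD0325901) dose matrix on pHGG cell lines and astrocyte controls, 7 days, adherent 384-well. CellTiter-Glo RLU was normalised (no log2) to fractional activity between DMSO (0) and the positive control (1). Each combination was tested in two plate orientations.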

HGGX42 = H3.3 G34R paediatric high-grade glioma line; assay: as above
Experimental: as §1

O=C(NOC[C@H](O)CO)c1ccc(F)c(F)c1Nc1ccc(I)cc1F + CC1(C)OCCn2c1nc1c(N3CCOCC3)nc(-c3cnc(N)nc3)nc12 [GDC0084]
growth inhibition
Conditions	compound 1 concentration 0.009766 µM	compound 1 concentration 0.01953 µM	compound 1 concentration 0.03906 µM	compound 1 concentration 0.07812 µM	compound 1 concentration 0.15625 µM	compound 1 concentration 0.3125 µM	compound 1 concentration 0.625 µM	compound 1 concentration 1.25 µM	compound 1 concentration 5 µM	compound 1 concentration 20 µM
HABS, compound 2 concentration 0.03906 µM	-0.277	-0.277	-0.363	-0.35	-0.36	-0.157	0.0702	0.206	0.655	0.785
HABS, compound 2 concentration 0.07812 µM	-0.0837	-0.115	-0.185	-0.276	-0.182	-0.0585	0.174	0.282	0.686	0.84
HABS, compound 2 concentration 0.15625 µM	0.00867	-0.00819	-0.125	-0.152	-0.102	0.0679	0.212	0.368	0.765	0.893
HABS, compound 2 concentration 0.3125 µM	0.0584	0.00491	-0.0298	-0.035	-0.004	0.119	0.251	0.39	0.784	0.918
HABS, compound 2 concentration 0.625 µM	0.158	0.129	0.116	0.0817	0.117	0.224	0.337	0.487	0.849	0.948
HABS, compound 2 concentration 1.25 µM	0.352	0.341	0.305	0.259	0.336	0.387	0.482	0.573	0.912	0.98
HABS, compound 2 concentration 5 µM	0.731	0.725	0.702	0.703	0.706	0.689	0.739	0.792	0.974	0.997
HABS, compound 2 concentration 20 µM	0.963	0.956	0.951	0.939	0.938	0.927	0.938	0.957	0.998	1
HGGX42, compound 2 concentration 0.03906 µM	0.121	0.215	-0.0211	0.146	-0.0192	0.0136	0.0247	0.074	0.354	0.554
HGGX42, compound 2 concentration 0.07812 µM	0.188	0.255	0.106	0.265	0.148	0.0907	0.211	0.153	0.575	0.609
HGGX42, compound 2 concentration 0.15625 µM	0.307	0.29	0.478	0.322	0.224	0.377	0.32	0.341	0.477	0.686
HGGX42, compound 2 concentration 0.3125 µM	0.494	0.466	0.484	0.515	0.431	0.424	0.294	0.326	0.507	0.716
HGGX42, compound 2 concentration 0.625 µM	0.673	0.632	0.625	0.647	0.57	0.606	0.602	0.528	0.674	0.8
HGGX42, compound 2 concentration 1.25 µM	0.782	0.743	0.746	0.753	0.748	0.706	0.723	0.703	0.803	0.895
HGGX42, compound 2 concentration 5 µM	0.875	0.86	0.872	0.883	0.882	0.872	0.881	0.876	0.93	0.979
HGGX42, compound 2 concentration 20 µM	0.898	0.898	0.901	0.911	0.908	0.899	0.907	0.908	0.956	0.986

— the supplement of paper PMC8253809
